{"source": "ChEMBL document CHEMBL5532700", "about": "“Inhibition of bacterial RNA polymerase function and protein-protein interactions: a promising approach for next-generation antibacterial therapeutics” (RSC Med Chem, 2024)", "key": {"[1]": {"assay": "Binding affinity to NusB (unknown origin) assessed as dissociation constant", "design": "species or system Bacteria"}, "[2]": {"assay": "Inhibition of NusB-NusE (unknown origin) protein protein interaction", "design": "species or system Bacteria"}, "[3]": {"system": "Staphylococcus aureus", "assay": "Antibacterial activity against Staphylococcus aureus", "assay_type": "functional"}, "[4]": {"system": "Staphylococcus aureus", "assay": "Antibacterial activity against vancomycin-resistant Staphylococcus aureus", "assay_type": "functional"}, "[5]": {"system": "Staphylococcus aureus", "assay": "Antibacterial activity against methicillin-resistant Staphylococcus aureus", "assay_type": "functional"}, "[6]": {"assay": "Inhibition of Escherichia coli RNA polymerase/sigma factor 70 (unknown origin) protein-protein interaction incubated for 30 mins by ELISA"}, "[7]": {"system": "Escherichia coli", "assay": "Antibacterial activity against Escherichia coli assessed as inhibition of bacterial growth at 200 uM incubated for 10 sec under shaking condition relative to control", "assay_type": "functional", "conditions": "10 s"}, "[8]": {"system": "Bacillus subtilis", "assay": "Antibacterial activity against Bacillus subtilis assessed as inhibition of bacterial growth at 200 uM incubated for 10 sec under shaking condition relative to control", "assay_type": "functional", "conditions": "10 s"}, "[9]": {"system": "Bacillus subtilis", "assay": "Antibacterial activity against Bacillus subtilis EU168 measured after 18 hrs", "assay_type": "functional"}, "[10]": {"system": "Bacteria", "assay": "Inhibition of bacterial RNA polymerase holoenzyme formation assessed as inhibition of interaction between beta subunit CH domain and sigma factor at 500 uM relative to control"}, "[11]": {"system": "Staphylococcus aureus", "assay": "Antibacterial activity against community-acquired methicillin-resistant Staphylococcus aureus USA300 measured after 18 hrs", "assay_type": "functional"}, "[12]": {"assay": "Inhibition of Bacillus subtilis N-terminal SmBiT NanoLuc/C-terminal LgBiT NanoLuc fused full-length SigA tagged RNA polymerase beta subunit CH-domain (220 to 315 residues)/sigma factor (unknown origin) protein-protein interaction by split luciferase assay"}, "[13]": {"system": "Streptococcus pneumoniae", "assay": "Antibacterial activity against Streptococcus pneumoniae assessed as reduction in bacterial growth incubated for 16 to 20 hrs by broth microdilution method", "assay_type": "functional", "conditions": "time 16-20 hrs"}, "[14]": {"system": "Bacteroides sp.", "assay": "Antibacterial activity against Bacteroides sp. measured after 24 hrs by broth microdilution method", "assay_type": "functional"}, "[15]": {"system": "Bacillus anthracis", "assay": "Antibacterial activity against Bacillus anthracis 9131 measured after 24 hrs by broth microdilution method", "assay_type": "functional"}, "[16]": {"system": "Streptococcus pneumoniae", "assay": "Antibacterial activity against Streptococcus pneumoniae CIP103566 measured after 24 hrs by broth microdilution method", "assay_type": "functional"}, "[17]": {"assay": "Inhibition of ribo(C)10 stimulated Escherichia coli AR120 Rho ATPase activity preincubated for 2 mins in presence of ribo(C)10 followed by ATP addition and measured for 90 sec by [gamma-32P]ATP based liquid scintillation counting method"}, "[18]": {"assay": "Inhibition of ribo(C)10 stimulated Escherichia coli AR120 Rho ATPase activity preincubated for 2 mins in absence of ribo(C)10 followed by ATP addition and measured for 90 sec by [gamma-32P]ATP based liquid scintillation counting method"}, "[19]": {"system": "Moraxella catarrhalis", "assay": "Antibacterial activity against Moraxella catarrhalis", "assay_type": "functional"}, "[20]": {"assay": "Inhibition of poly(C) dependent Escherichia coli DW319 Rho ATPase activity"}, "[21]": {"system": "Neisseria gonorrhoeae", "assay": "Antibacterial activity against Neisseria gonorrhoeae", "assay_type": "functional"}}, "data": [{"smiles": "C#Cc1cccc(/N=C/c2cc([N+](=O)[O-])ccc2O)c1", "values": [{"measurement": "Kd", "setting": "[1]", "result": "~1.5", "unit": "µM"}, {"measurement": "IC50", "setting": "[2]", "result": "~35", "unit": "µM"}, {"measurement": "MIC", "setting": "[3]", "result": 8, "unit": "µg/mL"}]}, {"smiles": "O=[N+]([O-])c1ccc(O)c(/C=N/c2cccc(Cl)c2)c1", "values": [{"measurement": "MIC", "setting": "[4]", "result": 0.25, "unit": "µg/mL"}, {"measurement": "MIC", "setting": "[3]", "result": 2, "unit": "µg/mL"}, {"measurement": "MIC", "setting": "[5]", "result": 0.25, "unit": "µg/mL"}]}, {"smiles": "C=CCN1C(=O)/C(=C/c2cc(C)n(-c3cccc(C(=O)O)c3)c2C)SC1=S", "values": [{"measurement": "IC50", "setting": "[6]", "result": 1.8, "unit": "µM"}]}, {"smiles": "N=C(N)N/N=C/c1ccc(OC/C=C\\COc2ccc(/C=N/NC(=N)N)cc2)cc1", "values": [{"measurement": "inhibition at 200 µM", "setting": "[7]", "result": 100, "unit": "%"}, {"measurement": "inhibition at 200 µM", "setting": "[8]", "result": 100, "unit": "%"}]}, {"smiles": "CN1C(=O)/C(=C\\c2ccc(-c3cccc(C(=O)O)c3)o2)SC1=S", "values": [{"measurement": "IC50", "setting": "[6]", "result": 3, "unit": "µM"}]}, {"smiles": "CC(C)(C)c1ccccc1NCc1cc([N+](=O)[O-])ccc1O", "values": [{"measurement": "MIC", "setting": "[4]", "result": 0.25, "unit": "µg/mL"}, {"measurement": "MIC", "setting": "[3]", "result": 1, "unit": "µg/mL"}, {"measurement": "MIC", "setting": "[5]", "result": 0.25, "unit": "µg/mL"}]}, {"smiles": "COc1ccc(-c2cc(-c3ccc(OC)c(OC)c3)nc(NS(=O)(=O)c3ccc(NC(C)=O)cc3)n2)c(OC)c1", "values": [{"measurement": "IC50", "setting": "[2]", "result": 6.1, "unit": "µM"}]}, {"smiles": "O=[N+]([O-])c1ccc(O)c(CNc2ccccc2C#Cc2ccccc2)c1", "values": [{"measurement": "MIC", "setting": "[4]", "result": 0.25, "unit": "µg/mL"}, {"measurement": "MIC", "setting": "[3]", "result": 0.25, "unit": "µg/mL"}, {"measurement": "MIC", "setting": "[5]", "result": 0.25, "unit": "µg/mL"}]}, {"smiles": "C[C@]12CC[C@@H](O)CC1CCC1C2CC[C@](C)(C(=O)O)C1/C=C1/Nc2ccccc2C1=O", "note": "(some centres undefined)", "values": [{"measurement": "MIC", "setting": "[9]", "result": "≤ 50", "unit": "µM"}, {"measurement": "inhibition", "setting": "[10]", "result": 80, "unit": "%"}, {"measurement": "MIC", "setting": "[11]", "result": "~100", "unit": "µM"}]}, {"smiles": "C#Cc1cccc(NCc2cc([N+](=O)[O-])cc(Br)c2O)c1", "values": [{"measurement": "MIC", "setting": "[4]", "result": 0.25, "unit": "µg/mL"}, {"measurement": "MIC", "setting": "[5]", "result": 0.25, "unit": "µg/mL"}]}, {"smiles": "Nc1ccccc1Sc1ccc(C(=O)c2ccccc2C(=O)O)cc1[N+](=O)[O-]", "values": [{"measurement": "inhibition", "setting": "[10]", "result": 80, "unit": "%"}, {"measurement": "IC50", "setting": "[12]", "result": 6.4, "unit": "µM"}, {"measurement": "MIC", "setting": "[13]", "result": 256, "unit": "µg/mL"}]}, {"smiles": "CCNC(=O)Nc1ccc(OCCCCOc2ccc(NC(=O)NCC)cc2)cc1", "values": [{"measurement": "IC50", "setting": "[2]", "result": 19.8, "unit": "µM"}]}, {"smiles": "COc1cccc(/C=C/c2cc(O)ccc2[N+](=O)[O-])c1", "values": [{"measurement": "MIC", "setting": "[4]", "result": 0.25, "unit": "µg/mL"}, {"measurement": "MIC", "setting": "[3]", "result": 2, "unit": "µg/mL"}, {"measurement": "MIC", "setting": "[5]", "result": 0.25, "unit": "µg/mL"}]}, {"smiles": "C=CCN1C(=O)/C(=C\\c2ccc(-c3cccc(C(=O)O)c3)o2)SC1=S", "values": [{"measurement": "IC50", "setting": "[6]", "result": 2, "unit": "µM"}, {"measurement": "MIC", "setting": "[14]", "result": 1, "unit": "µg/mL"}, {"measurement": "MIC", "setting": "[15]", "result": 0.1, "unit": "µg/mL"}, {"measurement": "MIC", "setting": "[16]", "result": 2, "unit": "µg/mL"}]}, {"smiles": "O=C(O)c1ccccc1C(=O)c1ccc(Sc2ccc(Cl)c(Cl)c2)c([N+](=O)[O-])c1", "values": [{"measurement": "MIC", "setting": "[13]", "result": 8, "unit": "µg/mL"}]}, {"smiles": "C=C1CCO[C@]2([C@@H](O)[C@@](C)(O)CO)NC(=O)[C@@]1(O)NC2=O", "note": "[BICOZAMYCIN]", "values": [{"measurement": "Ki", "setting": "[17]", "result": 2.8, "unit": "µM"}, {"measurement": "Ki", "setting": "[18]", "result": 26, "unit": "µM"}]}, {"smiles": "O=C1N(Cc2ccccc2)CCC1(CCN1CCC(Nc2nc3ccccc3n2Cc2ccc(F)cc2)CC1)Cc1ccccc1", "note": "(centres undefined)", "values": [{"measurement": "MIC", "setting": "[19]", "result": 2.5, "unit": "µM"}, {"measurement": "IC50", "setting": "[20]", "result": 25, "unit": "µM"}, {"measurement": "MIC", "setting": "[21]", "result": 2.5, "unit": "µM"}]}]}
